Assay results from PMC10859961, “Ir(III) Half-Sandwich Photosensitizers with a π-Expansive Ligand for Efficient Anticancer Photodynamic Therapy” (Journal of Medicinal Chemistry, 2024).
Several values for one entry are separate records, joined by “and”; a condition that tells them apart may be missing. Equal entries are not always repeated. Where two headings read alike, the source gives them in different places.

How the values were obtained:
A549 cells [1] = assay: Mitochondrial membrane potential (JC-1, flow cytometry); format: cell-based, human; conditions: 10 nM, blue light 1 h
Protocol: A549 cells were seeded onto 24-well plates. 24 h later, cells were incubated for 4 h with complexes 2, 4, 6, and 8 at 10 nM and then photoactivated or kept in the dark for an additional hour. Next, the cells were washed with PBS and harvested by trypsinization. Mitochondrial membrane potential changes were immediately measured by the JC-1 (5,5′,6,6′-tetrachloro-1,1′,3,3′-tetraethylbenzimidazolocarbo-cyanine iodide) Mitochondrial Membrane Potential Detection Kit (Biotium), according to the manufacturer’s instructions. As positive control, the cells were coincubated with CCCP (Sigma) at 5 μM for 30 min to disrupt the mitochondrial membrane potential. For each treatment, the fluorescence of 1 × 10^4 cells was analyzed by a Novocyte flow cytometer. JC-1 red aggregates were detected at a wavelength of 590 nm (FL2) and JC-1 green monomers at 529 nm (FL1).

A549 cells [2] = assay: Lysosome damage (Acridine Orange, confocal microscopy); format: cell-based, human; conditions: 10 nM, blue light irradiation
Protocol: For confocal microscopy experiments, A549 cells were seeded onto glass-bottom 8-well chamber slides (Ibidi) (5 × 10^4 cells per well) and allowed to attach overnight. In each experiment, the cells were treated with the complexes at the indicated conditions and washed with PBS before staining. For mitochondria visualization, the cells were incubated with the fluorescent dye MitoTracker Red CMXRos (Molecular Probes) at 200 nM in serum-free culture medium for 30 min at 37 °C. Cell nuclei were counterstained in blue with Hoechst 33342 (Invitrogen) diluted 1:4000 in DMEM without phenol red. To analyze lysosomal damage, the cells were incubated with AO at 5 μM at 37 °C for 15 min. Before observation, the cells were washed twice with PBS and fresh growth medium without phenol red was added. Cell images were immediately obtained by a Nikon A1R confocal microscope and images were analyzed using the NIS-Elements AR (Nikon, Japan) and the Fiji/ImageJ software.

A549 cells [3] = assay: Trypan blue exclusion test; format: cell-based, human; conditions: complexes at respective IC50 in the dark, 24 h
Protocol: To assess the cytotoxicity of the complexes, A549 cells were seeded in 96-well plates and treated with the complexes at the respective IC50,dark value. After 24 h of incubation, 10 μL of Trypan Blue (0.4% solution; Sigma) was added directly to the wells to avoid loss of dead cells in the treatment washes. After 10 min, images of the cells were captured using an Olympus CKX41 Microscope equipped with LCmicro software (Olympus).

[4] = pKa determination (absorbance vs pH); format: physicochemical; conditions: DMSO/H2O (2/98, v/v), Bu4NBF4 5 mM; piperidine ring
Protocol: Solutions of complexes 5 and 6 (2.00 × 10^–5 M) and Imepip ligand (2.00 × 10^–3 M) in H2O/DMSO (98/2, v/v) mixture with n-Bu4NBF4 (5 mM) were prepared. The presence of the salt ensured the conductivity of the media. Evolution of the peaks was studied at different pH by recording the absorbance spectrum. Aliquots of 10 μL of HCl (0.002–0.020 M) or NaOH (0.002–0.020 M) were added to a solution of 2.4 mL of complex to vary the pH. The absorbance versus pH plot enables us to determine one constant according to the equation from the Wilson and Lester method (eq 2):[146] [drawing 23] 2 where Aa is the absorbance for the acid species, Ab is the absorbance for the basic species, and Am is the absorbance of the mixture. The intersection obtained by representing log(Am – Aa)/(Ab – Am) versus pH provides the pKa.

[5] = Stability and photostability studies by 1H NMR; format: physicochemical
Protocol: Solutions of complexes 1 and 6 at 3.2 mM and 2 at 0.6 mM in DMSO-d6 and DMSO-d6/D2O mixture (9:1, v/v) were prepared.

[6] = test system: multicellular A549 tumor spheroids; assay: Cytotoxic activity against spheroids (CellTiter-Glo 3D); format: cell-based, human; conditions: for IC50: 48 h
Protocol: For the evaluation of the cytotoxic activity of complex 6 in 3D cultures, 96-well plates coated with a thin solidified layer of Geltrex reduced growth factor basement membrane matrix (Gibco) were used to form A549 spheroids. A density of 1500 single cells per well was seeded in culture medium supplemented with 2% Geltrex. Treatments with concentrations of complex 6 ranging from 5 to 0.001 μM in culture medium containing 2% Geltrex were performed at day 6. The cells were then kept in the dark or photoactivated with blue light, as described. After 48 h, the treatments were removed, the cells were washed with PBS and cell viability was determined by adding 100 μL of medium and 100 μL of CellTiter-Glo 3D reagent (Promega) to each well. Following the manufacturer’s protocol, the cells were kept in agitation for 5 min and incubated for 25 min at room temperature. Then, the luminescence was determined using a Multiscan Plate Reader (Synergy 4, Biotek, Winooski). The IC50 values were calculated with the Gen5 Data Analysis Software (BioTeck) for two independent experiments, each with duplicate samples. Nontreated cells were used as control.

[7] = Stability in DMEM (UV-vis); format: physicochemical; conditions: DMEM without phenol red; dark; 48 h
Protocol: The stability of the complexes in biological media was studied by UV–vis spectroscopy. Complexes 1 and 2 were dissolved in DMSO and complexes 3–8 were dissolved in MeOH at 1.0 × 10^–3 M and then diluted to 1.0 × 10^–5 M with Dulbecco’s modified Eagle’s medium (DMEM) without phenol red (Corning) (the final concentration of DMSO or MeOH was 1%). The solutions were studied in the dark and under blue light irradiation (470 nm).

In the case of Cc1c(C)c(C)[c-](C)c1C.F[B-](F)(F)F.c1ccc2cc3nc4c5ccc[n+]6c5c5[c](cccc5c4nc3cc2c1)[Ir]6[n+]1cc[nH]c1 [complex 4, [(η^5-C5Me5)Ir(Im)(pbpn)]BF4], the “cells with red fluorescence (JC-1 aggregates), upper right quadrant” value (shortened to “cells … upper right quadrant”) (A549 cells [1]) is reported as 34.3%, the “red fluorescent particles (lysosomes, AO staining)” value (“red fluorescent particles” below) (A549 cells [2]) is reported as “completely disappeared” and the “proportion of cells with uptake of trypan blue dye” value (shortened to “proportion of cells”) (A549 cells [3]) is reported as 54%.

In the case of Cc1c(C)c(C)[c-](C)c1C.F[B-](F)(F)F.c1ccc2nc3c4ccc[n+]5c4c4[c](cccc4c3nc2c1)[Ir]5[n+]1ccn(CCN2CCCCC2)c1 [complex 5, [(η^5-C5Me5)Ir(Imepip)(pbpz)]BF4], the pKa [4] is reported as 7.2 and 7.19.

In the case of Cc1c(C)c(C)[c-](C)c1C.F[B-](F)(F)F.c1ccc2cc3nc4c5ccc[n+]6c5c5[c](cccc5c4nc3cc2c1)[Ir]6[n+]1ccn(CCN2CCCCC2)c1 [complex 6, [(η^5-C5Me5) Ir(Imepip)(pbpn)]BF4], the “cells … upper right quadrant” value (A549 cells [1]) is reported as 16.9%, the pKa [4] is reported as 7.8 and 7.85 and the “release of the N-donor ligand (1H NMR)” value ([5]; DMSO-d6/D2O (9/1), dark or blue, green or red light irradiation) is reported as “not observed”. The “red fluorescent particles” value (A549 cells [2]) was “completely disappeared”, the IC50 ([6]; blue light photoactivation, read-out: IC50,light) was 5 ± 1 nM and the IC50 ([6]; dark, read-out: IC50,dark) was 1200 ± 200 nM. For the same compound, the PI ([6]; blue light) was 240 and the “proportion of cells” value (A549 cells [3]) was 53%.

With Cc1c(C)c(C)[c-](C)c1C.[Cl][Ir]1[c]2cccc3c4nc5ccccc5nc4c4ccc[n+]1c4c23 [complex 1, [(η^5-C5Me5)IrCl(pbpz)]] the “stability in DMEM (UV–vis changes)” value [7] was “minor change”, the “Percentage of species (chlorido complex remaining / aqua adduct formed), 1H NMR” value ([5]; DMSO‐d6, dark, 0 h) was 100% and the “Percentage of species (chlorido complex remaining / aqua adduct formed), 1H NMR” value ([5]; DMSO‐d6, dark, 0.5 h) was 78%. For the same compound, the “Percentage of species (chlorido complex remaining / aqua adduct formed), 1H NMR” value ([5]; DMSO‐d6, dark, 1 h) was 76%, the “Percentage of species (chlorido complex remaining / aqua adduct formed), 1H NMR” value ([5]; DMSO‐d6, dark, 1.5 h) was 75% and the “Percentage of species (chlorido complex remaining / aqua adduct formed), 1H NMR” value ([5]; DMSO‐d6, dark, 2.5 h) was 72%. The “Percentage of species (chlorido complex remaining / aqua adduct formed), 1H NMR” value ([5]; DMSO‐d6, dark, 4.5 h) was 71%, the “Percentage of species (chlorido complex remaining / aqua adduct formed), 1H NMR” value ([5]; DMSO‐d6, dark, 6 h) was 70% and the “Percentage of species (chlorido complex remaining / aqua adduct formed), 1H NMR” value ([5]; DMSO‐d6, dark, 8 h) was 69%. For the same compound, the “Percentage of species (chlorido complex remaining / aqua adduct formed), 1H NMR” value ([5]; DMSO‐d6, dark, 10 h) was 68%, the “Percentage of species (chlorido complex remaining / aqua adduct formed), 1H NMR” value ([5]; DMSO‐d6, dark, 32 h) was 57% and the “Percentage of species (chlorido complex remaining / aqua adduct formed), 1H NMR” value ([5]; DMSO‐d6, dark, 50 h) was 49%. For the same compound, the “Percentage of species (chlorido complex remaining / aqua adduct formed), 1H NMR” value ([5]; DMSO‐d6, dark, 70 h) was 40%, the “Percentage of species (chlorido complex remaining / aqua adduct formed), 1H NMR” value ([5]; DMSO‐d6, dark, 97 h) was 35% and the “Percentage of species (chlorido complex remaining / aqua adduct formed), 1H NMR” value ([5]; DMSO‐d6/D2O (9/1), dark, 0 h) was 100%. For the same compound, the “Percentage of species (chlorido complex remaining / aqua adduct formed), 1H NMR” value ([5]; DMSO‐d6/D2O (9/1), dark, 0.5 h) was 4%, the “Percentage of species (chlorido complex remaining / aqua adduct formed), 1H NMR” value ([5]; DMSO‐d6/D2O (9/1), dark, 1 h) was 0.5% and the “Percentage of species (chlorido complex remaining / aqua adduct formed), 1H NMR” value ([5]; DMSO‐d6/D2O (9/1), dark, 1.5 h) was 0%. The “Percentage of species (chlorido complex remaining / aqua adduct formed), 1H NMR” value ([5]; DMSO‐d6/D2O (9/1), dark, 2.5 h) was 0%, the “Percentage of species (chlorido complex remaining / aqua adduct formed), 1H NMR” value ([5]; DMSO‐d6/D2O (9/1), dark, 4.5 h) was 0% and the “Percentage of species (chlorido complex remaining / aqua adduct formed), 1H NMR” value ([5]; DMSO‐d6/D2O (9/1), dark, 6 h) was 0%. For the same compound, the “Percentage of species (chlorido complex remaining / aqua adduct formed), 1H NMR” value ([5]; DMSO‐d6/D2O (9/1), dark, 8 h) was 0%, the “Percentage of species (chlorido complex remaining / aqua adduct formed), 1H NMR” value ([5]; DMSO‐d6/D2O (9/1), dark, 10 h) was 0% and the “Percentage of species (chlorido complex remaining / aqua adduct formed), 1H NMR” value ([5]; DMSO‐d6/D2O (9/1), dark, 32 h) was 0%. The “Percentage of species (chlorido complex remaining / aqua adduct formed), 1H NMR” value ([5]; DMSO‐d6/D2O (9/1), dark, 50 h) was 0%, the “Percentage of species (chlorido complex remaining / aqua adduct formed), 1H NMR” value ([5]; DMSO‐d6/D2O (9/1), dark, 70 h) was 0% and the “Percentage of species (chlorido complex remaining / aqua adduct formed), 1H NMR” value ([5]; DMSO‐d6/D2O (9/1), dark, 97 h) was 0%.

For Cc1c(C)c(C)[c-](C)c1C.F[B-](F)(F)F.c1ccc(Cn2cc[n+]([Ir]3[c]4cccc5c6nc7cc8ccccc8cc7nc6c6ccc[n+]3c6c45)c2)cc1 [complex 8, [(η^5-C5Me5)Ir(bzIm)(pbpn)]BF4], the “cells … upper right quadrant” value (A549 cells [1]) was 6.6%, the “red fluorescent particles” value (A549 cells [2]) was “completely disappeared” and the “proportion of cells” value (A549 cells [3]) was 23%.
